Results: US20240376085A1 (Janssen Pharmaceutica NV, priority 2021, published 2024)

Tests used:
[1] = tested on: IL-17A-induced G-CSF production in human normal keratinocyte (NHK); assay: NHK assay: IL-17A-induced G-CSF production in normal human keratinocytes; type: cell-based; settings: Homo sapiens, Keratinocyte, 24 h, IL-17A 5 ng/mL, average if tested more than once
Method in brief: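 IC50 derives from G-CSF in supernatants, quantified by HTRF from a standard curve, with CellTiter-Glo viability compared to DMSO control. Before a 24 h, 37°C culture of normal human keratinocytes at 3000–4000 cells/well, compound dilutions were preincubated 1 h at rt with human IL-17A (5 ng/mL final), with 0.2% DMSO and 5% FBS.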

IL-17A : IL-17RA binding = target: T1, IL-17A : IL-17RA binding (Homo sapiens, UniProt Q16552, K93Q); assay: IL-17A(FLAG-tagged):IL-17RA(His-tagged) binding disruption Eu-HTRF assay, Protocol 1; settings: FLAG-IL-17A 2.5 nM at 2x final concentration; average if tested more than once
T1 construct: Name: IL-17A-Flag
Method in brief: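 IC50 came from a one-site competition fit of the acceptor/donor (665/620 nm) HTRF ratio. His-tagged IL-17RA, Eu-anti-FLAG and D2-anti-His were added after a 1 h rt compound preincubation with FLAG-tagged IL-17A dimer in PBS/0.01% Triton X-100, followed by 2 h at rt before reading.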

T1 sequence (Q16552 with tags, fused parts or gaps K93Q): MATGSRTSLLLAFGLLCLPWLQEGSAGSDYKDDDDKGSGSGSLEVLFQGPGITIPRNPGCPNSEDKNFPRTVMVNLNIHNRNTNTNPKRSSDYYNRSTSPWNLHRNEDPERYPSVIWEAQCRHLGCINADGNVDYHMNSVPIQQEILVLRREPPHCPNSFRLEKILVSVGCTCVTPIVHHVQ

IC50 (IL-17A : IL-17RA binding) [nM]	SMILES	IC50 [1] [nM]
< 50	Cc1nonc1C(=O)N[C@@H](CC(C)(C)C(F)(F)F)c1nc2ccc([C@H](NC(=O)CC3CC(F)(F)C3)C3CC3)cc2[nH]1 [Example 186, N—((S)-1-(6-((R)-Cyclopropyl(2-(3,3-difluorocyclobutyl)acetamido)methyl)-1H-benzo[d]imidazol-2-yl)-4,4,4-trifluoro-3,3-dimethylbutyl)-4-methyl-1,2,5-oxadiazole-3-carboxamide]	50 to 100
< 50	CC(C)n1cccc1C(=O)N[C@H](c1nc2cc([C@@H](C)NC(=O)CCC(F)(F)F)ccc2[nH]1)C1CCC(F)(F)CC1 [Example 213, N—((S)-(4,4-Difluorocyclohexyl)(5-((R)-1-(4,4,4-trifluorobutanamido)ethyl)-1H-benzo[d]imidazol-2-yl)methyl)-1-isopropyl-1H-pyrrole-2-carboxamide]	< 50
> 100	C[C@@H](NC(=O)CCC(F)(F)F)c1ccc2[nH]c([C@@H](NC(=O)c3cnnn3CCC3CC3)C3CCC(F)(F)CC3)nc2c1 [Example 13, 3-(2-Cyclopropylethyl)-N—[(S)-(4,4-difluorocyclohexyl)-[6-[(1R)-1-(4,4,4-trifluorobutanoylamino)ethyl]-1H-benzimidazol-2-yl]methyl]triazole-4-carboxamide]	> 100
> 100	C[C@@H](NC(=O)CCC(F)(F)F)c1ccc2[nH]c([C@@H](NC(=O)c3ccnn3C)C3CCC(F)(F)CC3)nc2c1 [Example 118, N—((S)-(4,4-Difluorocyclohexyl)(5-((R)-1-(4,4,4-trifluorobutanamido)ethyl)-1H-benzo[d]imidazol-2-yl)methyl)-1-methyl-1H-pyrazole-5-carboxamide]	50 to 100
> 100	CC(C)n1cncc1C(=O)N[C@H](c1nc2cc([C@@H](C)NC(=O)CCC(F)(F)F)ccc2[nH]1)C1CCC(F)(F)CC1 [Example 208, N—((S)-(4,4-Difluorocyclohexyl)(5-((R)-1-(4,4,4-trifluorobutanamido)ethyl)-1H-benzo[d]imidazol-2-yl)methyl)-1-isopropyl-1H-imidazole-5-carboxamide]	> 100
50 to 100	C[C@@H](NC(=O)CCC(F)(F)F)c1ccc2[nH]c([C@@H](NC(=O)c3cnn(CCC4CC4)n3)C3CCC(F)(F)CC3)nc2c1 [Example 12, 2-(2-Cyclopropylethyl)-N—[(S)-(4,4-difluorocyclohexyl)-[6-[(1R)-1-(4,4,4-trifluorobutanoylamino)ethyl]-1H-benzimidazol-2-yl]methyl]triazole-4-carboxamide]	> 100
50 to 100	C[C@@H](NC(=O)CC(C(F)(F)F)C(F)(F)F)c1ccc2[nH]c([C@@H](NC(=O)c3ccnn3C)C3CCC(F)(F)CC3)nc2c1 [Example 116, N—((S)-(4,4-Difluorocyclohexyl)(5-((R)-1-(4,4,4-trifluoro-3-(trifluoromethyl)butanamido)ethyl)-1H-benzo[d]imidazol-2-yl)methyl)-1-methyl-1H-pyrazole-5-carboxamide]	< 50
> 100	Cc1nonc1C(=O)N[C@@H](CC(C)(C)C(F)(F)F)c1nc2cc([C@@H](NC(=O)CCC(F)(F)F)C3CC3)ccc2[nH]1 (relative stereo) [Example 192, N—((S*)-1-(5-((S*)-Cyclopropyl(4,4,4-trifluorobutanamido)methyl)-1H-benzo[d]imidazol-2-yl)-4,4,4-trifluoro-3,3-dimethylbutyl)-4-methyl-1,2,5-oxadiazole-3-carboxamide]	> 100
> 100	CC(C)n1nccc1C(=O)N[C@@H](C[C@H]1CCC(F)(F)C1)c1nc2ccc([C@H](NC(=O)CC3CC(F)(F)C3)C3CC3)cc2[nH]1 [Example 236, N—((S)-1-(6-((R)-Cyclopropyl(2-(3,3-difluorocyclobutyl)acetamido)methyl)-1H-benzo[d]imidazol-2-yl)-2-((R)-3,3-difluorocyclopentyl)ethyl)-1-isopropyl-1H-pyrazole-5-carboxamide]	> 100
> 100	C[C@@H](NC(=O)CCC(F)(F)F)c1ccc2nc([C@@H](NC(=O)c3cn(CC4CC(F)(F)C4)nn3)C3CCC(F)(F)CC3)[nH]c2c1 [Example 65, 1-((3,3-Difluorocyclobutyl)methyl)-N—((S)-(4,4-difluorocyclohexyl)(6-((R)-1-(4,4,4-trifluorobutanamido)ethyl)-1H-benzo[d]imidazol-2-yl)methyl)-1H-1,2,3-triazole-4-carboxamide]	> 100
> 100	C[C@@H](NC(=O)CCC(F)(F)F)c1ccc2[nH]c([C@@H](NC(=O)[C@H]3C[C@H]3F)C3CCC(F)(F)CC3)nc2c1 [Example 99, (1R,2R)—N—((S)-(4,4-Difluorocyclohexyl)(5-((R)-1-(4,4,4-trifluorobutanamido)ethyl)-1H-benzo[d]imidazol-2-yl)methyl)-2-fluorocyclopropane-1-carboxamide]	> 100
> 100	C[C@@H](NC(=O)CCC(F)(F)F)c1ccc2[nH]c(C(CC(C)(C)C(F)(F)F)NC(=O)c3cnn(CC4CC4)n3)nc2c1 (single isomer, unassigned) [Example 191, 2-(Cyclopropylmethyl)-N—((R*)-4,4,4-trifluoro-3,3-dimethyl-1-(5-((R)-1-(4,4,4-trifluorobutanamido)ethyl)-1H-benzo[d]imidazol-2-yl)butyl)-2H-1,2,3-triazole-4-carboxamide]	> 100
50 to 100	Cc1nonc1C(=O)N[C@H](c1nc2cc([C@H](NC(=O)CC(C)C(F)(F)F)C3CC3)ccc2[nH]1)[C@@H]1CCCC(F)(F)C1 (single isomer, unassigned) [Example 258, N—((S)-(5-((R)-Cyclopropyl((R*)-4,4,4-trifluoro-3-methylbutanamido)methyl)-1H-benzo[d]imidazol-2-yl)((R)-3,3-difluorocyclohexyl)methyl)-4-methyl-1,2,5-oxadiazole-3-carboxamide]	50 to 100
> 100	Cc1nonc1C(=O)N[C@H](c1nc2ccc([C@H](NC(=O)CC3CC(F)(F)C3)C3CC3)cc2[nH]1)C1CCC(F)(F)CO1 (single isomer, unassigned) [Example 260, N—((R)-(6-((R)-Cyclopropyl(2-(3,3-difluorocyclobutyl)acetamido)methyl)-1H-benzo[d]imidazol-2-yl)((S*)-5,5-difluorotetrahydro-2H-pyran-2-yl)methyl)-4-methyl-1,2,5-oxadiazole-3-carboxamide]	> 100
> 100	Cc1nonc1C(=O)N[C@H](c1nc2ccc([C@H](NC(=O)CC3CC(F)(F)C3)C3CC3)cc2[nH]1)C1CCCCO1 (single isomer, unassigned) [Example 252, N—((R)-(6-((R)-Cyclopropyl(2-(3,3-difluorocyclobutyl)acetamido)methyl)-1H-benzo[d]imidazol-2-yl)((R*)-tetrahydro-2H-pyran-2-yl)methyl)-4-methyl-1,2,5-oxadiazole-3-carboxamide]	> 100

SMILES	IC50 (IL-17A : IL-17RA binding) [nM]	IC50 [1] [nM]
Cc1nonc1C(=O)N[C@@H](COC1CC(F)(F)C1)c1nc2ccc([C@H](NC(=O)CC3CC(F)(F)C3)C3CC3)cc2[nH]1 [Example 256, N—((R)-1-(6-((R)-Cyclopropyl(2-(3,3-difluorocyclobutyl)acetamido)methyl)-1H-benzo[d]imidazol-2-yl)-2-(3,3-difluorocyclobutoxy)ethyl)-4-methyl-1,2,5-oxadiazole-3-carboxamide]	> 100	> 100
